Measurements taken from the NIST ThermoML archive (doi:10.1021/je0340755).
± gives the expanded uncertainty stated by the source.

Assay: xn = mol fraction of the nth substance listed
Settings: 101.3 kPa, Liquid; for viscosity: Capillary tube (Ostwald / Ubbelohde) method

CC(O)C(C)O (configuration not stated) [2,3-butanediol] + O
Settings | mass density, 298.15 K [kg/m3] | mass density, 308.15 K [kg/m3] | mass density, 318.15 K [kg/m3] | speed of sound, 298.15 K [m/s] | speed of sound, 308.15 K [m/s] | speed of sound, 318.15 K [m/s] | viscosity, 298.15 K [mPa·s] | viscosity, 308.15 K [mPa·s] | viscosity, 318.15 K [mPa·s]
x2 = 0.0546 | 999.76 ± 0.35 | 993.26 ± 0.36 | 985.33 ± 0.38 | 1483 ± 6.2 | 1446.8 ± 6.1 | 1418.4 ± 6 | 41.89 ± 0.2 | 21.57 ± 0.12 | 12.04 ± 0.086
x2 = 0.1435 | 1001.87 ± 0.34 | 995.29 ± 0.34 | 987.34 ± 0.36 | 1501.3 ± 6.2 | 1464.7 ± 6.1 | 1436 ± 6 | 36.73 ± 0.17 | 19.07 ± 0.11 | 10.64 ± 0.081
x2 = 0.2458 | 1004.58 ± 0.33 | 997.92 ± 0.32 | 989.9 ± 0.34 | 1520.7 ± 6.3 | 1483.6 ± 6.2 | 1454.5 ± 6.1 | 30.5 ± 0.15 | 16.07 ± 0.096 | 8.953 ± 0.076
x2 = 0.3539 | 1007.87 ± 0.33 | 1001.1 ± 0.31 | 993.04 ± 0.32 | 1548.5 ± 6.4 | 1510.7 ± 6.3 | 1481.1 ± 6.2 | 24.04 ± 0.12 | 12.95 ± 0.086 | 7.207 ± 0.072
x2 = 0.4502 | 1011.19 ± 0.33 | 1004.34 ± 0.31 | 996.28 ± 0.31 | 1576.9 ± 6.5 | 1538.4 ± 6.3 | 1508.2 ± 6.2 | 18.63 ± 0.1 | 10.32 ± 0.079 | 5.737 ± 0.069
x2 = 0.4989 | 1013.01 ± 0.33 | 1006.11 ± 0.31 | 998.08 ± 0.3 | 1589.5 ± 6.5 | 1550.7 ± 6.4 | 1520.3 ± 6.3 | 16.08 ± 0.093 | 9.06 ± 0.076 | 5.036 ± 0.068
x2 = 0.5503 | 1014.99 ± 0.33 | 1008.06 ± 0.31 | 1000.07 ± 0.29 | 1604.9 ± 6.5 | 1565.8 ± 6.4 | 1535.1 ± 6.3 | 13.54 ± 0.086 | 7.8 ± 0.073 | 4.339 ± 0.067
x2 = 0.6581 | 1019.13 ± 0.33 | 1012.2 ± 0.31 | – | 1637.2 ± 6.6 | 1597.3 ± 6.5 | – | 8.918 ± 0.075 | 5.443 ± 0.069 | 3.047 ± 0.065
x2 = 0.7518 | 1021.95 ± 0.33 | 1015.17 ± 0.31 | – | 1667.8 ± 6.7 | 1627.1 ± 6.6 | – | 5.811 ± 0.069 | 3.773 ± 0.066 | 2.15 ± 0.064
x2 = 0.8626 | 1021.36 ± 0.32 | 1015.24 ± 0.31 | – | 1673.2 ± 6.7 | 1632.4 ± 6.6 | – | 3.267 ± 0.065 | 2.265 ± 0.064 | 1.37 ± 0.063
x2 = 0.9092 | 1017.89 ± 0.31 | 1012.39 ± 0.29 | – | 1657.9 ± 6.7 | 1617.5 ± 6.6 | – | 2.463 ± 0.064 | 1.743 ± 0.064 | 1.108 ± 0.063
x2 = 0.9148 | 1017.25 ± 0.31 | 1011.85 ± 0.29 | – | 1651.5 ± 6.7 | 1611.2 ± 6.5 | – | 2.372 ± 0.064 | 1.682 ± 0.064 | 1.078 ± 0.063
x2 = 0.9248 | 1015.95 ± 0.31 | 1010.74 ± 0.29 | – | 1645.4 ± 6.7 | 1605.3 ± 6.5 | – | 2.21 ± 0.064 | 1.574 ± 0.064 | 1.025 ± 0.063
x2 = 0.9305 | 1015.11 ± 0.3 | 1010.02 ± 0.29 | – | 1640.3 ± 6.6 | 1600.3 ± 6.5 | – | 2.118 ± 0.064 | 1.512 ± 0.064 | 0.995 ± 0.063
x2 = 0.935 | 1014.4 ± 0.3 | 1009.4 ± 0.28 | – | – | 1597.2 ± 6.5 | – | 2.044 ± 0.064 | 1.463 ± 0.064 | 0.969 ± 0.063
x2 = 0.9452 | 1012.61 ± 0.29 | 1007.83 ± 0.28 | – | – | 1588.3 ± 6.5 | – | 1.878 ± 0.064 | 1.352 ± 0.063 | 0.915 ± 0.063
x2 = 0.9542 | 1010.78 ± 0.29 | 1006.24 ± 0.27 | – | 1616.9 ± 6.6 | 1577.5 ± 6.4 | – | 1.729 ± 0.064 | 1.254 ± 0.063 | 0.866 ± 0.063
x2 = 0.9703 | 1006.89 ± 0.28 | 1002.81 ± 0.26 | – | – | 1570.9 ± 6.4 | – | 1.453 ± 0.064 | 1.074 ± 0.063 | 0.775 ± 0.063
x2 = 0.98 | 1004.1 ± 0.27 | 1000.33 ± 0.26 | – | – | 1557.9 ± 6.4 | – | 1.278 ± 0.063 | 0.962 ± 0.063 | 0.719 ± 0.063
x2 = 0.9903 | 1000.7 ± 0.26 | 997.3 ± 0.26 | – | – | 1547.6 ± 6.3 | – | 1.083 ± 0.063 | 0.839 ± 0.063 | 0.657 ± 0.063
x2 = 0.9925 | 999.91 ± 0.26 | 996.59 ± 0.27 | – | – | 1543.9 ± 6.3 | – | 1.04 ± 0.063 | 0.812 ± 0.063 | 0.644 ± 0.063
x2 = 0.9951 | 998.95 ± 0.26 | 995.73 ± 0.27 | – | 1577.9 ± 6.5 | 1539.4 ± 6.3 | – | 0.99 ± 0.063 | 0.779 ± 0.063 | 0.627 ± 0.063
